# Results as given in ChEMBL document CHEMBL1147552, “Novel CCR1 antagonists with improved metabolic stability” (Bioorg Med Chem Lett, 2004).
# How the values were obtained:
# [1] = target: T1, C-C chemokine receptor type 1 (Homo sapiens, UniProt P32246); assay: Inhibition of CCL3 binding to C-C chemokine receptor type 1
# T1 sequence (P32246 whole entry): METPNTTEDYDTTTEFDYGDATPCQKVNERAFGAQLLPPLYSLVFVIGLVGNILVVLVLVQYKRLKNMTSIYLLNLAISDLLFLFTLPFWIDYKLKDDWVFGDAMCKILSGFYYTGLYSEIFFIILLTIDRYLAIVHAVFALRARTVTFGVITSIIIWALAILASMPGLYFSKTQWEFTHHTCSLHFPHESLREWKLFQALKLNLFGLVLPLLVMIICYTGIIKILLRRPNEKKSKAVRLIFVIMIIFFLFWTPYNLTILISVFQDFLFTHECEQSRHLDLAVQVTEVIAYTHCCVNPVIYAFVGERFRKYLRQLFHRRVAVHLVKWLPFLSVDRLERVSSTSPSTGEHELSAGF
# [2] = Plasma clearance of compound was determined in dog
# [3] = Elimination Half-life of compound was determined in dog; details: in vivo
# [4] = Oral bioavailability in monkey; details: cercopithecidae, in vivo
# [5] = Plasma clearance of compound was determined in monkey; details: cercopithecidae
# [6] = Volume of distribution of compound was determined in monkey; details: cercopithecidae, in vivo
# [7] = Volume of distribution of compound was determined in dog; details: in vivo
# [8] = Aqueous solubility of compound was determined
# Homo sapiens = species: Homo sapiens; details: Liver, Microsome
# Description: In vitro oxidative metabolic stability measured by the rate of drug consumption in human liver microsomes as intrinsic clearance values
Structure (SMILES),IC50 [1] [nM],CL (mL.min-1.kg-1) (Homo sapiens),also measured
CC(C)(F)CC[C@H](C[C@H](O)[C@H](Cc1ccccc1)NC(=O)c1cnc2ccccc2n1)C(N)=O,9,–,–
CC(C)(F)CCC(C[C@H](O)[C@H](Cc1ccccc1)NC(=O)c1cnc2ccccc2n1)C(=O)N1CCCC1 (stereo partly specified),2320,–,–
CC(C)(O)CCC(C[C@H](O)[C@H](Cc1ccc(F)cc1)NC(=O)c1cnc2ccccc2n1)C(N)=O (stereo partly specified),> 25000,–,–
O=C(N[C@@H](Cc1ccccc1)[C@@H](O)CC(C(=O)NO)C1CCC(F)(F)CC1)c1cnc2ccccc2n1 (stereo partly specified),7,6.1,clearance [2]: 38 mL/min/kg; half-life [3]: 30 min; bioavailability [4]: < 1.1%; clearance [5]: 33 mL/min/kg; Vd [6]: 1.8 L/kg; Vd [7]: 1.3 L/kg; solubility [8]: 12 µg/mL
NC(=O)C(C[C@H](O)[C@H](Cc1ccccc1)NC(=O)c1cnc2ccccc2n1)C1CCOCC1 (stereo partly specified),3460,–,–
CC(C)(F)CCC(C[C@H](O)[C@H](Cc1ccccc1)NC(=O)c1cnc2ccccc2n1)C(=O)NCc1ccccc1 (stereo partly specified),850,–,–
CCNC(=O)C(CCC(C)(C)F)C[C@H](O)[C@H](Cc1ccccc1)NC(=O)c1cnc2ccccc2n1 (stereo partly specified),75,–,–
NC(=O)C(C[C@H](O)[C@H](Cc1ccccc1)NC(=O)c1cnc2ccccc2n1)C1CCCCC1 (stereo partly specified),8,242,–
CN1CCN(C(=O)C(CCC(C)(C)F)C[C@H](O)[C@H](Cc2ccccc2)NC(=O)c2cnc3ccccc3n2)CC1 (stereo partly specified),5600,647,–
NC(=O)C(C[C@H](O)[C@H](Cc1ccccc1)NC(=O)c1cnc2ccccc2n1)C1(O)CCCCC1 (stereo partly specified),54,47.7,–
CC(C)(F)CCC(C[C@H](O)[C@H](Cc1ccccc1)NC(=O)c1cnc2ccccc2n1)C(=O)NO (stereo partly specified),27,–,–
CC(C)(O)CCC(C[C@H](O)[C@H](Cc1ccccc1F)NC(=O)c1cnc2ccccc2n1)C(N)=O (stereo partly specified),52,16.5,–
NC(=O)C(C[C@H](O)[C@H](Cc1ccccc1)NC(=O)c1cnc2ccccc2n1)C1(O)CCC(F)(F)CC1 (stereo partly specified),56,6.4,–
CC(C)(F)CCC(C[C@H](O)[C@H](Cc1ccccc1)NC(=O)c1cnc2ccccc2n1)C(=O)NN (stereo partly specified),7,32.7,–
NC(=O)C(C[C@H](O)[C@H](Cc1ccccc1)NC(=O)c1cnc2ccccc2n1)C1CCC(F)(F)CC1 (stereo partly specified),20,–,–
CC(C)(O)CC[C@H](C[C@H](O)[C@H](Cc1ccccc1)NC(=O)c1cnc2ccccc2n1)C(N)=O,580,4.9,–
